{"source": "patent EP4624466A1", "about": "“DEGRADER FOR DECOMPOSING CMET PROTEIN, AND PHARMACEUTICAL COMPOSITION COMPRISING SAME” (Innocure Therapeutics, Inc., priority 2022, dated 2024)", "key": {"Hs746T": {"test_system": "Hs746T", "experiment": "Cell viability / antiproliferative assay (WST-8), Hs746T", "assay_type": "cell-based", "conditions": "Homo sapiens, Hs746T cells, 72 hours, Table 2", "experimental": "(§2) c-MET overexpressing human gastric cancer cell lines [MKN45] and [SNU638] were cultured in RPMI medium with 10% fetal bovine serum, penicillin (100U/ml), and streptomycin (100mg/ml), and c-MET exon 14 skipping mutant human gastric cancer cell lines [Hs746T] were cultured in DMEM media. The c-MET overexpressing human lung cancer cell line EBC-1 was cultured in MEM media with the addition of 10% fetal bovine serum, penicillin (100U/ml), and streptomycin (100mg/ml). […] The compound synthesized in accordance with the present invention was prepared with a raw material solution of 10 mM dissolved in DMSO (dimethyl sulfoxide), and was sequentially diluted and processed.\n(§3) In order to observe the inhibitory activity on cell growth, cells were dispensed in a 96-well plate at a concentration of 5,000 cells/well, and then treated with the compound prepared at various concentrations for 72 hours. The viability of the cells was calculated using GraphicPad Prism 8.0 software by adding 10 ml per well of WST-8 (water soluble tetrazolium salt) sample, which reacts with dehydrogenase present in the electron transport system of mitochondria to produce formazon, incubated for 2 hours, and measured absorbance at 450 nm."}, "MKN-45": {"test_system": "MKN-45", "experiment": "Cell viability / antiproliferative assay (WST-8), MKN-45;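 also: MKN-45 is a human gastric cancer line overexpressing c-MET, growth inhibition read as WST-8 formazan absorbance at 450 nm after 2 h dye incubation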", "conditions": "Homo sapiens, MKN-45, 72 h, read-out: MKN-45 IC50", "experimental": "as §2, §3"}, "c-MET [1]": {"molecular_target": "T1, c-MET (Homo sapiens, UniProt P08581)", "T1 sequence (P08581 25-1390)": "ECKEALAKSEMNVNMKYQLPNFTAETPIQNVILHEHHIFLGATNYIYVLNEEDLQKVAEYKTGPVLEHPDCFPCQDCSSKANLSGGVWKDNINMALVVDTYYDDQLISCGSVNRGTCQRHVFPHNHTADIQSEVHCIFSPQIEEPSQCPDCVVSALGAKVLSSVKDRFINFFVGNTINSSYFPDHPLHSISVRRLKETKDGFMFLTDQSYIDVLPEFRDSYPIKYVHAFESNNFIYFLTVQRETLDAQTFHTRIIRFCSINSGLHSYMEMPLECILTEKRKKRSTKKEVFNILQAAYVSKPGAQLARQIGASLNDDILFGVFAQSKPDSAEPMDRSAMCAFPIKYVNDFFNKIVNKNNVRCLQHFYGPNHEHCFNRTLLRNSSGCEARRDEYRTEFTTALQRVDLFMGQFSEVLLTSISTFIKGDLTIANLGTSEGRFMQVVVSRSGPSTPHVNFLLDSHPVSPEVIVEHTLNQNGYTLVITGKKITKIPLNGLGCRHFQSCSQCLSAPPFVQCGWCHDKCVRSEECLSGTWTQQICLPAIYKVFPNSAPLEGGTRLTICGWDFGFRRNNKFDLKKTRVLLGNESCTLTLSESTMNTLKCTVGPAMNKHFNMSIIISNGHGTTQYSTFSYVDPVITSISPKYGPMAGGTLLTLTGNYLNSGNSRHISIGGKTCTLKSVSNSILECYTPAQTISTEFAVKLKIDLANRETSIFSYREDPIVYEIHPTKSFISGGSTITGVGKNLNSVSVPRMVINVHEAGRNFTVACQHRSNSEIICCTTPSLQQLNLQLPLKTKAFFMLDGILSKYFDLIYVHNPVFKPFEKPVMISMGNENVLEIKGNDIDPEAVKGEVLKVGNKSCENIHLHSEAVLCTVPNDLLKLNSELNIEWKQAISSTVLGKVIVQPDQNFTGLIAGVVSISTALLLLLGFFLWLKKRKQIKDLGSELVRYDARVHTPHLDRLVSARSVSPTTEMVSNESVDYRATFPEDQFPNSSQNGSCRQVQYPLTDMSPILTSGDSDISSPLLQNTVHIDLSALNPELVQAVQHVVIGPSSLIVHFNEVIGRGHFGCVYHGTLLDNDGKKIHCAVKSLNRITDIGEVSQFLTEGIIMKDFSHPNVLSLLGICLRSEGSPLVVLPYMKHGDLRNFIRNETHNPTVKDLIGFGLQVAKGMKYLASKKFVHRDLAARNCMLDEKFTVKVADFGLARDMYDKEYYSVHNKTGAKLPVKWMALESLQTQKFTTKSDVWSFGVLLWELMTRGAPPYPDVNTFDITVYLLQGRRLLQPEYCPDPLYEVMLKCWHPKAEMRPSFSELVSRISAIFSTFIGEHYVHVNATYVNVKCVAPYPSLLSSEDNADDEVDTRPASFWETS", "experiment": "c-MET protein degradation (Simple Western), MKN-45", "assay_type": "cell-based", "design": "assess the resolution of the compound of the present invention for c-MET expressed in cells; endogenous in cells; host or cells: MKN45 (human gastric cancer)", "conditions": "c-MET overexpressing gastric cancer cell line MKN-45, treated 24 hours; Table 2", "summary_of_the_method": "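c-MET level, GAPDH-normalized and relative to 0.1% DMSO-treated cells, measured by automated capillary Western (3 µg protein) after compound exposure of 48 h for lung or 24 h for gastric cancer lines; DC50 = concentration giving 50% reduction.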"}, "c-MET [2]": {"molecular_target": "T1, c-MET", "experiment": "c-MET protein degradation (Simple Western), EBC-1", "assay_type": "cell-based", "design": "assess the resolution of the compound of the present invention for c-MET expressed in cells; endogenous in cells; host or cells: EBC-1 (human lung cancer)", "conditions": "c-MET overexpressing lung cancer cell line EBC-1, treated 48 hours; Table 2", "description": "(§1) In order to assess the resolution of the compound of the present invention for c-MET expressed in cells, cells were dispensed in a 12-well plate at a concentration of 2 × 10^5 cells/well, and then gastric cancer cell lines were treated with samples for 24 hours and lung cancer cell lines were treated for 48 hours. Cell lysates were collected using a scraper on ice, centrifuged at 4°C15,000 rpm for 30 min to obtain a protein-containing supernatant. Protein expression was then measured using the Simple Western Automated Western Blot System Abby instrument using 3 µg of protein for each sample. SDS and heat-induced denaturation proteins were separated by molecular weight, attached to capillary, reacted with anti-c-MET or anti-GAPDH antibodies, which are primary antibodies, and then reacted with HRP-conjugated secondary antibodies, and analyzed the protein expression signal with compass software. Protein expression was normalized based on the expression value of GAPDH, and protein development in each sample was measured as a percentage (%) based on 100% of samples treated with 0.1% DMSO carriers, and DC50 (concentration of a compound where 50% protein inhibition is achieved) was calculated from the change in protein expression amount due to compound treatment."}, "c-MET [3]": {"molecular_target": "T1, c-MET", "experiment": "c-MET protein degradation (Simple Western), SNU-638", "assay_type": "cell-based", "design": "assess the resolution of the compound of the present invention for c-MET expressed in cells; endogenous in cells; host or cells: SNU638 (human gastric cancer)", "conditions": "c-MET overexpressing gastric cancer cell line SNU-638, treated 24 hours; Table 2", "description": "as §1"}, "SNU-638": {"test_system": "SNU-638", "experiment": "Cell viability / antiproliferative assay (WST-8), SNU-638", "assay_type": "cell-based, human", "conditions": "read-out: SNU-638 IC50"}, "EBC-1": {"test_system": "EBC-1", "experiment": "Cell viability / antiproliferative assay (WST-8), EBC-1", "assay_type": "cell-based, human", "conditions": "read-out: EBC-1 IC50", "experimental": "as §2, §3"}}, "note": "Like-named read-outs stand apart in the source and are kept apart here.", "data": [{"smiles": "Cc1nn(C2CCC(=O)NC2=O)c(=O)c2ccc(N3CCN(C(=O)CCCN4CCC(COc5cnc(-c6cccc(Cn7nc(-c8cccc(C#N)c8)ccc7=O)c6)nc5)CC4)CC3)cc12", "note": "(stereo not drawn) [ICT-0001227, 3-(1-(3-(5-((1-(4-(4-(2-(2,6-dioxopiperidin-3-yl)-4-methyl-1-oxo-1,2-dihydropetalazine-6-yl)piperazine-1-yl)4-oxobutyl)piperidine-4-yl)methoxy)pyrimidine-2-yl)benzyl)6-oxo-1,6-dihydropyridazine-3-yl)benzonitrile]", "values": [{"measurement": "IC50", "setting": "Hs746T", "value": "< 100", "unit": "nM"}, {"measurement": "IC50", "setting": "MKN-45", "value": "< 100", "unit": "nM"}]}, {"smiles": "N#Cc1cccc(-c2ccc(=O)n(Cc3cccc(-c4ncc(OCC5CCN(CCCC(=O)N6CCN(c7ccc8c(=O)n(C9CCC(=O)NC9=O)ncc8c7)CC6)CC5)cn4)c3)n2)c1", "note": "(stereo not drawn) [ICT-0001226]", "values": [{"measurement": "IC50", "setting": "Hs746T", "value": "< 100", "unit": "nM"}, {"measurement": "IC50", "setting": "MKN-45", "value": "< 100", "unit": "nM"}]}, {"smiles": "N#Cc1cccc(-c2ccc(=O)n(Cc3cccc(-c4ncc(OCC5CCN(CCC(=O)N6CCN(c7ccc8c(=O)n(C9CCC(=O)NC9=O)ncc8c7)CC6)CC5)cn4)c3)n2)c1", "note": "(stereo not drawn) [ICT-0001223]", "values": [{"measurement": "DC50", "setting": "c-MET [1]", "value": "< 100", "unit": "nM"}, {"measurement": "IC50", "setting": "Hs746T", "value": "< 100", "unit": "nM"}, {"measurement": "IC50", "setting": "MKN-45", "value": "< 100", "unit": "nM"}]}, {"smiles": "Cc1nn(C2CCC(=O)NC2=O)c(=O)c2cc(N3CCN(C(=O)CCCN4CCC(COc5cnc(-c6cccc(Cn7nc(-c8cccc(C#N)c8)ccc7=O)c6)nc5)CC4)CC3)ccc12", "note": "(stereo not drawn) [ICT-0001228]", "values": [{"measurement": "DC50", "setting": "c-MET [1]", "value": "< 100", "unit": "nM"}, {"measurement": "IC50", "setting": "Hs746T", "value": "100 to 1000", "unit": "nM"}]}, {"smiles": "Cc1nn(C2CCC(=O)NC2=O)c(=O)c2cc(N3CCN(C(=O)CCN4CCC(COc5cnc(-c6cccc(Cn7nc(-c8cccc(C#N)c8)ccc7=O)c6)nc5)CC4)CC3)ccc12", "note": "(stereo not drawn) [ICT-0001.225]", "values": [{"measurement": "DC50", "setting": "c-MET [1]", "value": "< 100", "unit": "nM"}, {"measurement": "IC50", "setting": "Hs746T", "value": "< 100", "unit": "nM"}, {"measurement": "IC50", "setting": "MKN-45", "value": "< 100", "unit": "nM"}]}, {"smiles": "Cc1nn(C2CCC(=O)NC2=O)c(=O)c2ccc(N3CCN(C(=O)CCN4CCC(COc5cnc(-c6cccc(Cn7nc(-c8cccc(C#N)c8)ccc7=O)c6)nc5)CC4)CC3)cc12", "note": "(stereo not drawn) [ICT-0001224]", "values": [{"measurement": "DC50", "setting": "c-MET [1]", "value": "< 100", "unit": "nM"}, {"measurement": "IC50", "setting": "Hs746T", "value": "< 100", "unit": "nM"}, {"measurement": "IC50", "setting": "MKN-45", "value": "< 100", "unit": "nM"}]}, {"smiles": "N#Cc1cccc(-c2ccc(=O)n(Cc3cccc(-c4ncc(OCC5CCN(CC(=O)NCCCC#Cc6ccc7c(=O)n(C8CCC(=O)NC8=O)ncc7c6)CC5)cn4)c3)n2)c1", "note": "(stereo not drawn) [ICT-0001205]", "values": [{"measurement": "DC50", "setting": "c-MET [1]", "value": "< 100", "unit": "nM"}, {"measurement": "IC50", "setting": "Hs746T", "value": "100 to 1000", "unit": "nM"}, {"measurement": "IC50", "setting": "MKN-45", "value": "< 100", "unit": "nM"}]}, {"smiles": "N#Cc1cccc(-c2ccc(=O)n(Cc3cccc(-c4ncc(OCC5CCN(C(=O)CN6CCN(c7ccc(NC8CCC(=O)NC8=O)cc7F)CC6)CC5)cn4)c3)n2)c1", "note": "(stereo not drawn) [ICT-0001494]", "values": [{"measurement": "DC50", "setting": "c-MET [2]", "value": "< 100", "unit": "nM"}, {"measurement": "DC50", "setting": "c-MET [3]", "value": "< 100", "unit": "nM"}, {"measurement": "IC50", "setting": "SNU-638; Homo sapiens, SNU-638, 72 h", "value": "< 100", "unit": "nM"}, {"measurement": "IC50", "setting": "EBC-1; Homo sapiens, EBC-1, 72 h", "value": "< 100", "unit": "nM"}]}, {"smiles": "Cc1nn(C2CCC(=O)NC2=O)c(=O)c2cc(F)c(N3CCN(CC4CCN(C(=O)CN5CCC(COc6cnc(-c7cccc(Cn8nc(-c9cccc(C#N)c9)ccc8=O)c7)nc6)CC5)CC4)CC3)cc12", "note": "(stereo not drawn) [ICT-0001204]", "values": [{"measurement": "DC50", "setting": "c-MET [1]", "value": "< 100", "unit": "nM"}, {"measurement": "IC50", "setting": "Hs746T", "value": "100 to 1000", "unit": "nM"}, {"measurement": "IC50", "setting": "MKN-45", "value": "< 100", "unit": "nM"}, {"measurement": "IC50", "setting": "EBC-1; Homo sapiens, EBC-1, 72 h", "value": "< 100", "unit": "nM"}]}, {"smiles": "N#Cc1cccc(-c2ccc(=O)n(Cc3cccc(-c4ncc(OCC5CCN(CC(=O)N6CCC(CN7CCN(c8ccc(NC9CCC(=O)NC9=O)cc8F)CC7)CC6)CC5)cn4)c3)n2)c1", "note": "(stereo not drawn) [ICT-0001447, 3-(1-{[3-(5-{[1-(2-{4-[(4-{4-[(2,6-dioxopiperidin-3-yl)amino]-2-fluorophenyl}piperazine-1-yl)methyl]piperidine-1-yl}-2-oxoethyl)piperidine-4-yl]methoxy}pyrimidine-2-yl)phenyl]methyl}-6-oxo-1,6-dihydropyridazine-3-yl)benzonitrile]", "values": [{"measurement": "DC50", "setting": "c-MET [2]", "value": "< 100", "unit": "nM"}, {"measurement": "DC50", "setting": "c-MET [3]", "value": "100 to 1000", "unit": "nM"}, {"measurement": "IC50", "setting": "SNU-638; Homo sapiens, SNU-638 cells, 72 hours, WST-8, Table 2", "value": "< 100", "unit": "nM"}, {"measurement": "IC50", "setting": "EBC-1; Homo sapiens, EBC-1 cells, 72 hours, WST-8, Table 2", "value": "< 100", "unit": "nM"}]}, {"smiles": "N#Cc1cccc(-c2ccc(=O)n(Cc3cccc(-c4ncc(OCC5CCN(CC6CN(c7ccc(NC8CCC(=O)NC8=O)cc7F)C6)CC5)cn4)c3)n2)c1", "note": "(stereo not drawn) [ICT-0001425]", "values": [{"measurement": "DC50", "setting": "c-MET [2]", "value": "< 100", "unit": "nM"}, {"measurement": "DC50", "setting": "c-MET [3]", "value": "< 100", "unit": "nM"}, {"measurement": "IC50", "setting": "SNU-638; SNU-638 cells, 72 hours, WST-8, Table 2", "value": "< 100", "unit": "nM"}, {"measurement": "IC50", "setting": "EBC-1; EBC-1 cells, 72 hours, WST-8, Table 2", "value": "< 100", "unit": "nM"}]}, {"smiles": "Cc1nn(C2CCC(=O)NC2=O)c(=O)c2ccc(N3CCN(C(=O)CCCCN4CCC(COc5cnc(-c6cccc(Cn7nc(-c8cccc(C#N)c8)ccc7=O)c6)nc5)CC4)CC3)cc12", "note": "(stereo not drawn) [ICT-0001250]", "values": [{"measurement": "IC50", "setting": "Hs746T", "value": "< 100", "unit": "nM"}, {"measurement": "IC50", "setting": "MKN-45", "value": "< 100", "unit": "nM"}]}]}
